In ChEMBL document CHEMBL4651402, “Screening of ~5500 FDA-approved drugs and clinical candidates for anti-SARS-CoV-2 activity” (2021):

System: SARS-CoV-2
Assay: microbe, parasite or virus in culture
Details: Severe acute respiratory syndrome coronavirus 2, Vero C1008, 48 h

| SMILES | IC50 [µM] | IC50 (read-out: pIC50 (converted)) [µM] |
| --- | --- | --- |
| NC(=O)Cc1cccc(C(=O)c2ccccc2)c1N | > 20 | > 20 |
| CN[C@@H](C)[C@H](O)c1ccc(O)cc1 | > 20 | > 20 |
| CCOC(=O)[C@H](CCc1ccccc1)N[C@@H](C)C(=O)N1[C@H](C(=O)O)C[C@@H]2CCC[C@@H]21 | > 20 | > 20 |
| NCc1c[nH]c(=S)n1[C@H]1CCc2c(F)cc(F)cc2C1 | > 20 | > 20 |
| Cc1cc(/C=C/c2ccc3cc(N(C)C)ccc3[n+]2C)c(C)n1-c1ccccc1 | > 20 | > 20 |
| C[C@@H](N)C12CC3CC(CC(C3)C1)C2 | > 20 | > 20 |
| CC1=CC(=O)C2=C(C)CCC3C(C)C(=O)OC3C12 (stereo not given) | > 20 | > 20 |
| Cc1nc(O)c2cc(CN(C)c3ccc(C(=O)NC(CCC(=O)O)C(=O)O)s3)ccc2n1 (stereo not given) | > 20 | > 20 |
| COc1cc(=O)n(C)c2c(OCC(O)C(C)(C)O)cccc12 (stereo not given) | > 20 | > 20 |
| C[N+]1(C)CCC[C@H]1C(=O)[O-] | > 20 | > 20 |
| C=CC1CN2CCC1CC2C(O)c1ccnc2ccccc12 (stereo not given) | > 20 | > 20 |
| CCCN(CCC)CCc1ccc(O)c(O)c1 | > 20 | > 20 |
| CN1C[C@H]2C[C@@H]1CN2c1cc2c(cc1F)c(=O)c(C(=O)O)cn2C1CC1 | > 20 | > 20 |
| CC(C)N(CCNC(=O)CN1CCCC1=O)C(C)C | > 20 | > 20 |
| OCc1cc2c(cn1)[nH]c1ccccc12 | > 20 | > 20 |
| CS(=N)(=O)CCC(N)C(=O)O (stereo not given) | > 20 | > 20 |
| C[N+]1(C)C2CCC1CC(OC(=O)C(O)c1ccccc1)C2 (stereo not given) | > 20 | > 20 |
| NC(Cc1c[nH]c2ccc(O)cc12)C(=O)O (stereo not given) | > 20 | > 20 |
| COC(=O)[C@H](Cc1ccccc1)NC(=O)[C@@H](N)CC(=O)O | > 20 | > 20 |
| C[C@H](N[C@@H](CCc1ccccc1)C(=O)O)C(=O)N1Cc2ccccc2C[C@H]1C(=O)O | > 20 | > 20 |

| SMILES | IC50 [µM] | IC50 (read-out: pIC50 (converted)) [µM] |
| --- | --- | --- |
| CC[C@@]1(c2ccccc2)NC(=O)N(C)C1=O | > 20 | > 20 |
| Nc1nccc2c1ncn2C1OC(CO)C(O)C1O (stereo not given) | > 20 | > 20 |
| CCOC(=O)Cc1ccc(-c2ccccc2)cc1 | > 20 | > 20 |
| CCOC(=O)Nc1ccc(SC[C@H]2CO[C@](Cn3ccnc3)(c3ccc(OC)cc3)O2)cc1 | > 20 | > 20 |
| O=C1CCC(c2ccccc2)(C2CCN(C/C=C/c3ccccc3)CC2)C(=O)N1 (stereo not given) | > 20 | > 20 |
| Cc1cc(OCCCS(C)(=O)=O)cc(C)c1-c1cccc(COc2ccc3c(c2)OC[C@@H]3CC(=O)O)c1 | > 20 | > 20 |
| C[C@H](CCC(=O)O)[C@H]1CC[C@H]2[C@@H]3[C@H](O)CC4C[C@H](O)CC[C@]4(C)[C@H]3CC[C@]12C (stereo not given in full) | > 20 | > 20 |
| COc1ccc(CCN)cc1OC | > 20 | > 20 |
| CNCCc1cnc[nH]1 | > 20 | > 20 |
| CC(=O)O[C@]1(C(C)=O)CCC2C3C[C@H](C)C4=CC(=O)CCC4(C)C3CCC21C (stereo not given in full) | > 20 | > 20 |
| O=C(O)C1CCCN(CCC=C2c3ccccc3CCc3ccccc32)C1 (stereo not given) | > 20 | > 20 |
| CC(=O)OCC1OC(n2ccc(=O)[nH]c2=O)C(OC(C)=O)C1OC(C)=O (stereo not given) | > 20 | > 20 |
| O=C(O)c1ccc2[nH]nnc2c1 | > 20 | > 20 |
| OCC(O)COc1ccc(Cl)cc1 (stereo not given) | > 20 | > 20 |
| OCC1CCC(n2cnc3c(O)ncnc32)O1 (stereo not given) | > 20 | > 20 |
| CCCC[C@@]1(CC)CS(=O)(=O)c2cc(CNC(CC(=O)O)CC(=O)O)c(OC)cc2[C@H](c2ccccc2)N1 | > 20 | > 20 |
| COC(=O)Nc1c(N)nc(-c2nn(Cc3ccccc3F)c3ncccc23)nc1N | > 20 | > 20 |
| Nc1ncc([N+](=O)[O-])s1 | > 20 | > 20 |
| CC(=O)OCC(=O)C1(O)C(C)CC2C3CC(F)C4=CC(=O)C=CC4(C)C3C(O)CC21C (stereo not given) | > 20 | > 20 |
| CSC[C@H](NC(=O)COc1cccc2cnccc12)C(=O)N[C@@H](Cc1ccccc1)[C@H](O)C(=O)N1CSC[C@H]1C(=O)NC(C)(C)C | > 20 | > 20 |
